Source: patent US9376380B2 (University of Pittsburgh—Of the Commonwealth System of …, priority 2011, dated 2016)
“Also recorded” adds a separate entry of the source.

Key:
Human MM cell U266 = assay: [3H]-thymidine uptake cell proliferation assay, U266; type: cell-based; details: Homo sapiens, U-266; U266, 48 h, [3H]-thymidine uptake; read-out: inhibition of DNA synthesis in MM cells, IC50
Method: (§1) FIG. 2. Inhibitory effects of CB2 ligands on human MM cell growth. Human MM cell U266 (3×10^4 cells per well in 96-well plate) was exposed to the known CB2 ligands (A) or PAM (B) at indicated concentrations (0-10 μmol/L) for 48 h. Cell proliferation was measured by [^3H]-thymidine uptake assay as described in Materials and Methods. (C) U266 cells (3×10^4 per well in 96-well plate) were treated with PAM at indicated doses for 48 h. Cell viability and the viable cell number per well were determined using trypan blue exclusion assay. (D) Human chemoresistant myeloma cell lines MM.1R (dexamethasone), RPMI-8226/LR5 (melphalan) and their respective parent cells MM.1S and RPMI-8226 were exposed to PAM for 48 h. Cell proliferation was measured by ^3H-thymidine incorporation. The data presented are the mean±SD of at least 3 independent measurements. (E) [S^35]-GTPγS binding assay of different ligands on human CB2 receptor expressed in CHO cells.
(§2) A tritiated thymidine incorporation assay was carried out to investigate the effects of CB2 ligands on cell proliferation. U266, RPMI-8226 (3×10^4 cells/well), MM.1 S cells (6×10^4 cells/well), and their resistant sublines were cultured in 96-well culture plates with or without drugs for 48 hours. DNA synthesis was measured by ^3H-thymidine uptake as described previously.

[1] = test system: MM.1R (dexamethasone) and RPMI-8226/LR5 (melphalan) cells; assay: [3H]-thymidine incorporation, chemoresistant myeloma cell lines; type: cell-based; details: Homo sapiens; MM.1R and RPMI-8226/LR5, 48 h; read-out: growth inhibition of chemoresistant myeloma cell lines, IC50
Method: as §1, §2

[2] = test system: MM.1S and RPMI-8226 cells; assay: [3H]-thymidine incorporation, parent myeloma cell lines; type: cell-based, human; details: MM.1S and RPMI-8226, 48 h
Method: as §1, §2

CB2 receptor [3] = molecular target: T1, CB2 receptor (Homo sapiens, UniProt P34972); assay: Cell-based cAMP assay
Excerpt: Cell-based cAMP assays were used to identify the mode by which the CB2 ligands according to the present invention modulate CB2 receptor.

[4] = molecular target: T2, human CB2 receptor expressed in CHO cells (Homo sapiens, UniProt P34972); assay: [35S]-GTPγS binding assay; type: biochemical
T2 construct: expressed in transfected cells; host or cells: CHO cells

[5] = test system: MM1.S cells expressing shRNA against human CB2; assay: Proliferation in CB2 knockdown MM1.S cells; type: cell-based; details: 48 h, [3H]TdR uptake
Method: (§3) FIG. 3. Inhibitory activity of PAM (compound (1)) in CB2 knockdown or agonist treated cells. (A) CB2 gene silencing in MM1.S cells confirmed by Western blot with CB2antibody. (B) Human MM1.S cells expressing shRNA vector or expressing the specific shRNA against human CB2 were treated with vehicle control (white column), or the indicated concentrations of PAM (black column) for 48 h. Cell proliferation was measured by [^3H]TdR uptake. […] The cell viability and the viable cells/well were determined using trypan blue exclusion assay.

U266 cells = assay: Trypan blue viability of U266 cells with CB2 agonist; type: cell-based, human; details: Win55212-2 or CP55940, 48 h
Method: as §3

MM cells = assay: Apoptosis and cell cycle protein studies in MM cells; type: cell-based
Excerpt: Since drug resistance is a prevalent problem in multiple myeloma clinical treatment, the ability of compounds according to this invention to overcome chemoresistance of MM cells against conventional drugs such as dexamethasone or melphalan provides an unexpected advantageous benefit in MM treatment. The present inventors have hypothesized that the cell inhibitory activity of the inventive compounds is due to their ability to activate apoptotic processes.
Compound (1) also altered certain proteins that are known to play a role in the cell-growth cycle. […] To further explore this observation, the present inventors investigated the effect of compound (1) on several proteins involved in cell G2-M phase transition.

[6] = test system: bone marrow mononuclear cells (MNC); assay: RANKL-induced osteoclast formation in bone marrow mononuclear cells; type: cell-based, murine and human
Method: FIG. 4. Effects of XIE35 and compound (1) on RANKL-induced osteoclast formation in bone marrow mononuclear cells (MNC). […] Half-medium change was performed every other day using drug-containing media where appropriate. After 5 days, the cells were fixed and stained for TRAP activity using a TRAP-staining kit (Sigma-Aldrich) according to the manufacturer's instructions. Lower panel: Human bone marrow MNCs (1×10^5 per well) were treated with rhRANKL (50 ng/ml) plus rhM-CSF (10 ng/ml), and the respective compounds as described above. After three weeks, differentiation into OCLs was assessed by staining with monoclonal antibody 23c6 using a Vectastatin-ABC-AP kit (Vector Laboratories). The antibody 23c6, which recognizes CD51/61 dimer constituting the OCL vitronectin receptor, was kindly provided by the Bone Biology Center of our university. Images were obtained with an Olympus IX70 microscope. Arrows designate the typical multinucleated osteoclasts with 3 or more nuclei.

CB2 receptor [7] = molecular target: T1, CB2 receptor; assay: [3H]CP-55,940 radioligand competition binding, CB2; design: host or cells: cell membrane preparations

T1 sequence (P34972 whole entry): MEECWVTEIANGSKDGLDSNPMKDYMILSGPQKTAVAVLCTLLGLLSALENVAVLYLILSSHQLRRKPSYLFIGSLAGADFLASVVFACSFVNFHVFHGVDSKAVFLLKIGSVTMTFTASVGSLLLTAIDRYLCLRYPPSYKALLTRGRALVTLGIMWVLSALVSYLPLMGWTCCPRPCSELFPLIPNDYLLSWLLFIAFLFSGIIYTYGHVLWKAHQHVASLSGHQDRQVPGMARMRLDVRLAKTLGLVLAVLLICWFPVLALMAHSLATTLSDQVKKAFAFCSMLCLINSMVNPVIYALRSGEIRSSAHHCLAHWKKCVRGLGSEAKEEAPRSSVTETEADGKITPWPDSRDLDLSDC
T2 sequence (P34972 whole entry): as above

## CN(C)c1ccc(C(NC(=O)Cc2ccccc2)NC(=O)Cc2ccccc2)cc1 [Compound 1, N,N′-((4-(dimethylamino)phenyl)methylene)bis(2-phenylacetamide)]
Human MM cell U266
  IC50: 1250 nM
[1]
  IC50: 600 to 1200 nM
[2]
  growth inhibitory effect on parent cells: no growth inhibitory effect
CB2 receptor [3]
  mode of CB2 modulation (c-AMP studies): inverse agonist
[4]
  CB2 receptor modulatory activity ([35S]-GTPγS): inverse CB2 receptor agonist
[5]
  anti-MM activity after stable knockout of CB2: largely abrogated
U266 cells
  inhibition of MM cell growth after pretreatment with CB2 agonist: attenuated
MM cells
  ER stress-induced transcription factor CHOP: transiently upregulated
  H2A.X phosphorylation: did not have any effect
  MAPK family members in treated MM cells: not up regulated
  effect on Cdc25C activation of Cdc2: prevents the tyrosine phosphatase Cdc25C from activating cyclin-B bound Cdc2
MM cells; various concentrations
  number of cells in the G0-G1 phase: does not change
  number of cells in the S-phase and G2-M phase: decreased in a dose dependent manner
[6]; 1 μM, murine 5 days, human three weeks
  RANKL/M-CSF induced osteoclast formation: anti-osteoclast activity; also recorded: completely blocking osteoclast formation
[6]; concentrations as high as 1 μM
  toxicity: non-toxic
CB2 receptor [7]; Ki(CB1)/Ki(CB2) ratio
  SI: selectivity index for CB2: >26
CB2 receptor [7]; [3H]CP-55,940 displacement, read-out: Ki (CB2)
  Ki: 777 nM
